Data reported in patent publication US8586582B2, “PI3K/mTOR kinase inhibitors” (Xcovery Holding Company, LLC, priority 2008, dated 2013).

Molecular target: T1, mTOR kinase (Homo sapiens, UniProt P42345)
T1 construct: purchased Invitrogen Corp. (Madison, Wis., USA)
Experiment: Z'-LYTE biochemical assay for mTOR (Invitrogen)
Protocol: The Z′-LYTE® biochemical assay for mTOR
The mTOR kinase activity was assessed using the Z′-LYTE® biochemical assay of Invitrogen Corp. (Madison, Wis., USA).

T1 sequence (P42345 1360-2549 limits assumed): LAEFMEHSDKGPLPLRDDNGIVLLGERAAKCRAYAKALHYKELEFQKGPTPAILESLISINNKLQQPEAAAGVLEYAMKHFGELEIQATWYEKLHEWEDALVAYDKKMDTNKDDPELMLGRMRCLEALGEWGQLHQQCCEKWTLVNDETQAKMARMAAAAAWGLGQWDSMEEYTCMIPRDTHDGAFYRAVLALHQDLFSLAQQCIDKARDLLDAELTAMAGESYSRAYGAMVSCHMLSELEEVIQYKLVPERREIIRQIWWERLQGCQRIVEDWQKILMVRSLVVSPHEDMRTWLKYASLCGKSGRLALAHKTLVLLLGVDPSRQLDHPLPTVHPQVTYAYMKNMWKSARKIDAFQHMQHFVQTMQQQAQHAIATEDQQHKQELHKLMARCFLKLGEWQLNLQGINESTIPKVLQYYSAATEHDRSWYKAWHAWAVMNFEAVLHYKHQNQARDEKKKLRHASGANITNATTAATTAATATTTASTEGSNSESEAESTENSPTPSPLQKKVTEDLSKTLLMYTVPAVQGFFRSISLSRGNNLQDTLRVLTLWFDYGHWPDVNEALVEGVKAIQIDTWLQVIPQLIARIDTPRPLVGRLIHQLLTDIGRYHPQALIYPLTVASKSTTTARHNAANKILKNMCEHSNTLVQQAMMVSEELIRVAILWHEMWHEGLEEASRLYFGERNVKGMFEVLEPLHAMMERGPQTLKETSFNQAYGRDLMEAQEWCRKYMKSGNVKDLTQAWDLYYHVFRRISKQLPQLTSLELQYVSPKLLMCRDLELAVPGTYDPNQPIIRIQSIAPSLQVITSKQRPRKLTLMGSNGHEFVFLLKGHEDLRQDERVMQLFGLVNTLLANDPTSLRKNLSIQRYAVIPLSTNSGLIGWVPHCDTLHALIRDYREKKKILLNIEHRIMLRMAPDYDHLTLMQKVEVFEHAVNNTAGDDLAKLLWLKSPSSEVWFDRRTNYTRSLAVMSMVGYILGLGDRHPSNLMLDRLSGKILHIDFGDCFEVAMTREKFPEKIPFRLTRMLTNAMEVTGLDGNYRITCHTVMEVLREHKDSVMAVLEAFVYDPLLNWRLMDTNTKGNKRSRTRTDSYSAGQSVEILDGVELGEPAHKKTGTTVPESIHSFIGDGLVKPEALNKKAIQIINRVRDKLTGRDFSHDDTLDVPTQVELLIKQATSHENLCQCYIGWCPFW

| Compound | IC50 [nM] |
| --- | --- |
| CN1CCN(C(=O)N2CCC(n3ncc4c(-c5cnc(N)nc5)nc(N5CCOCC5)nc43)CC2)CC1 [Example 4, 4-[4-(2-aminopyrimidin-5-yl)-6-morpholin-4-ylpyrazolo[5,4-d]pyrimidinyl]piperidyl 4-methylpiperazinyl ketone] | < 1000 |
| Nc1ncc(-c2nc(N3CCOCC3)nc3c2cnn3C2CCOCC2)cn1 [Example 1, 5-(1-(2H-3,4,5,6-tetrahydropyran-4-yl)-6-morpholin-4-ylpyrazolo[4,5-e]pyrimidin-4-yl)pyrimidine-2-ylamine] | < 1000 |
